The results in this text go back to patent publication EP3130590A1, “AROMATIC AZA COMPOUNDS AS VR1/TRPV1 LIGANDS” (Grünenthal GmbH, priority 2015, dated 2017).

This assay has as its target T1, vanilloid receptor 1 (VR1/TRPV1 receptor) (Homo sapiens, UniProt Q8NER1).
T1 construct: expressed in transfected cells; host or cells: CHO K1
The assay can be described thus: Functional testing on the vanilloid receptor 1 (FLIPR Ca2+ influx assay, capsaicin stimulation). It is filed as cell-based. The following applies: capsaicin (CAP) 100 nM; for inhibition at 1 µM: @ 1 µM test compound; for inhibition at 1 µM / inhibition at 5 µM: relative to maximum achievable inhibition with 10 µM capsazepine, read-out: inhibition (in %), column (f) Ki human [nM] CAP; for inhibition at 5 µM: @ 5 µM test compound. On the procedure: Furthermore, preference may be given to compounds according to the invention that cause a 50 per cent displacement of capsaicin, which is present at a concentration of 100 nM, in a FLIPR assay with CHO K1 cells which were transfected with the human VR1 gene at a concentration of less than 6,000 nM, preferably less than 5,000 nM, more preferably less that 3,000 nM or less than 1,000 nM and particularly preferably less than 300 nM, most particularly preferably less than 100 nM, even more preferably less than 75 nM, additionally preferably less than 50 nM, most preferably less than 10 nM.
In the process, the Ca^2+ influx is quantified in the FLIPR assay with the aid of a Ca^2+-sensitive dye (type Fluo-4, Molecular Probes Europe BV, Leiden, the Netherlands) in a fluorescent imaging plate reader (FLIPR, Molecular Devices, Sunnyvale, USA), as described hereinafter. […]
The FLIPR protocol consists of 2 substance additions. First the compounds to be tested (10 µM) are pipetted onto the cells and the Ca^2+ influx is compared with the control (capsaicin 10 µM). This provides the result in % activation based on the Ca^2+ signal after the addition of 10 µM of capsaicin (CP). After 5 min incubation, 100 nM of capsaicin are applied and the Ca^2+ influx is also determined. Desensitising agonists and antagonists lead to suppression of the Ca^2+ influx. The % inhibition is calculated compared to the maximum achievable inhibition with 10 µM of capsazepine.
Triple analyses (n=3) are carried out and repeated in at least 3 independent experiments (N=4). Starting from the percentage displacement caused by different concentrations of the compounds to be tested of general formula I, IC50 inhibitory concentrations which cause a 50% displacement of capsaicin were calculated.
Ki values for the test substances were obtained by conversion by means of the Cheng-Prusoff equation (Cheng, Prusoff; Biochem. Pharmacol. 22, 3099-3108, 1973).
The affinity of selected compounds according to the invention for the vanilloid receptor 1 (VR1/TRPV1 receptor) was determined as described hereinbefore.
The value after the "@"symbol indicates the concentration at which the indicated inhibition (in %) was respectively determined.

Where [1] appears, read: functional (f), Ki from IC50 by Cheng-Prusoff equation, "ne" = did not show any effect in this assay.

T1 sequence (Q8NER1 whole entry): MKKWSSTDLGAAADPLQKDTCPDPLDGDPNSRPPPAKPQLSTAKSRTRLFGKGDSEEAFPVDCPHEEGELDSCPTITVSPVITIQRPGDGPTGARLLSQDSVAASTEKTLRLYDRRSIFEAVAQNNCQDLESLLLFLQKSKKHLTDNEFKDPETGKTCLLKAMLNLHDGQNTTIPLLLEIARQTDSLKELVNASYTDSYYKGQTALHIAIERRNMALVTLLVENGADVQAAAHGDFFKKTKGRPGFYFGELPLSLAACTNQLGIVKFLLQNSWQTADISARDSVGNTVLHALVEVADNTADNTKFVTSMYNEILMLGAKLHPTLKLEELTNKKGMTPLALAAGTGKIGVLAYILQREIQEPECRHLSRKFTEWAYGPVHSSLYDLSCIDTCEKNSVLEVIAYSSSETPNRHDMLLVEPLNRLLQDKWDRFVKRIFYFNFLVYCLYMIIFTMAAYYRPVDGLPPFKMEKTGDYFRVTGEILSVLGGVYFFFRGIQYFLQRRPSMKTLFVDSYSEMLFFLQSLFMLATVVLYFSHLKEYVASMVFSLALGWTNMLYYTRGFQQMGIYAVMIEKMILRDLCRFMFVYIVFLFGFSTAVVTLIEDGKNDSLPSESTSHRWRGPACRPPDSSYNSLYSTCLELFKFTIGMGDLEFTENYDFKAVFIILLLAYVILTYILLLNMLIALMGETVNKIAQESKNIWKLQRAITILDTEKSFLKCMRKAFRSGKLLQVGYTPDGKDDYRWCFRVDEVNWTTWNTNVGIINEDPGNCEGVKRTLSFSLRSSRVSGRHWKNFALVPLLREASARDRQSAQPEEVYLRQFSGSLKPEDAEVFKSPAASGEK

With `CC1CCN(c2nc(C(F)(F)F)ccc2CNC(=O)NC2CCCc3c2cnn3C)CC1` (stereo not drawn) [compound 5, 1-(1-methyl-4,5,6,7-tetrahydro-1H-indazol-4-yl)-3-((2-(4-methylpiperidin-1-yl)-6-(trifluoromethyl)pyridin-3-yl)methyl)urea], the inhibition at 1 µM is 0% and the inhibition at 5 µM was 27%.
As to `CC1CCN(c2nc(C(F)(F)F)ccc2CNC(=O)NC2CCc3ccccc32)CC1` (stereo not drawn) [compound 1, 1-(2,3-dihydro-1H-inden-1-yl)-3-((2-(4-methylpiperidin-1-yl)-6-(trifluoromethyl)pyridin-3-yl)methyl)urea], the “(f) Ki human [nM] CAP” value under setting [1] is on record as “ne”.
As to `CC1CCN(c2nc(C(F)(F)F)ccc2CNC(=O)NC2CCCc3ccccc32)CC1` (stereo not drawn) [compound 2, 1-((2-(4-methylpiperidin-1-yl)-6-(trifluoromethyl)pyridin-3-yl)methyl)-3-(1,2,3,4-tetrahydronaphthalen-1-yl)urea], the inhibition at 1 µM came to 0% and the inhibition at 5 µM worked out at 36%.
The like results for `CC1CCN(c2nc(C(F)(F)F)ccc2CNC(=O)NC2Cc3ccccc3C2)CC1` [compound 3, 1-(2,3-dihydro-1H-inden-2-yl)-3-((2-(4-methylpiperidin-1-yl)-6-(trifluoromethyl)pyridin-3-yl)methyl)urea] were, in that order, 0% and 89%.
On to `CC1CCN(c2nc(C(F)(F)F)ccc2CNC(=O)NC2CCCc3ccc(O)cc32)CC1` (stereo not drawn) [compound 4, 1-(7-hydroxy-1,2,3,4-tetrahydronaphthalen-1-yl)-3-((2-(4-methylpiperidin-1-yl)-6-(trifluoromethyl)pyridin-3-yl)methyl)urea], for which, under setting [1], the affinity corresponds to a Ki of 6.1 nM.
In turn, `CC1CCN(c2nc(C(F)(F)F)ccc2CNC(=O)C(C)C2CCCc3ccc(O)cc32)CC1` (stereo not drawn) [comp. no. 6, 2-(7-hydroxy-1,2,3,4-tetrahydronaphthalen-1-yl)-N-((2-(4-methylpiperidin-1-yl)-6-(trifluoromethyl)pyridin-3-yl)methyl)propanamide] registered a Ki under setting [1] of 28.6 nM.
